Patent US10556875B2, “Bis-diazeniumdiolate compounds as anti-cancer agents” (ARIZONA BOARD OF REGENTS ON BEHALF OF ARIZONA STATE …, priority 2017, dated 2020)
Read-outs that look alike come from different tables or passages of the source.

Tests used:
Assay type in all cases: cell-based, human
[1] = tested on: breast cancer cell MDA-MB-231; experiment: In vitro cellular proliferation assay (MTT/MTS)
[2] = tested on: leukemia Jurkat E6-1 cells; experiment: In vitro cellular proliferation assay (MTT/MTS)
Protocol: (§1) In Vitro Cellular Proliferation Assay: BT474 breast cancer cells (ATCC® HTB-20, overexpression of HER2), A549 lung cancer cells, leukemia cell CCRF-CEM (ATCC# CCL-119), and leukemia Jurkat cell were cultured at 37° C. in a 5% CO2 atmosphere and grown in Gibco® RPMI 1640 medium supplemented with 10% fetal bovine serum (FBS) and 1% antibiotic-[…] mix antibiotic supplement before use.
(§2) Exponentially growing cells were harvested and plated in 96-well plates at a concentration of 1×10^4 cells/well. After incubation at 37° C. for 24 h, the cells were treated with analogues of JS-K at different concentrations for an additional 24, 48 or 72 h. Then 20 μL of MTT (5 mg/mL) or MTS was added to each well and the plates were incubated at 37° C. for 4 h. The supernatant was discarded for MTT assay, and 100 μL of DMSO was added to each well. For the MTS assay, this step is not necessary. The absorbance was recorded at 490 nm after 15 min. Inhibition of cell growth was obtained by the following formula: Inhibition of cell growth (%)=(ODnegative control−ODtreatment)×100%/(ODnegative control−ODbackground). Data are reported as the mean of three independent experiments, each run in quintuplicate.

A549 lung cancer cells = experiment: In vitro cellular proliferation assay (MTT/MTS)
Protocol: as §1, §2

[3] = tested on: BT474 breast cancer cells; experiment: In vitro cellular proliferation assay (MTT/MTS)
Protocol: as §1, §2

leukemia cell CCRF-CEM = experiment: In vitro cellular proliferation assay (MTT/MTS)
Protocol: as §1, §2

[4] = tested on: BT474, MDA-MB-231, A549, CCRF-CEM and Jurkat cancer cells; experiment: In vitro cellular proliferation assay, comparison across the tested cancer cell panel
Protocol: as §1, §2

[5] = Homo sapiens, MDA-MB-231, read-out: Half maximal inhibitory concentration (IC50)
[6] = Homo sapiens, Jurkat E6.1, read-out: Half maximal inhibitory concentration (IC50)
[7] = Homo sapiens, A549, read-out: Half maximal inhibitory concentration (IC50)
[8] = Homo sapiens, BT-474, read-out: Half maximal inhibitory concentration (IC50)
[9] = Homo sapiens, CCRF-CEM, read-out: Half maximal inhibitory concentration (IC50)

| SMILES | IC50 [1, 5] | IC50 [2, 6] | IC50 (A549 lung cancer cells; [7]) | IC50 [3, 8] | IC50 (leukemia cell CCRF-CEM; [9]) | specific activity to human leukemia cells ([4]; among the compounds of the series) | selectivity to leukemia cells versus breast cancer and lung cancer cells ([4]; compared with JS-K) | IC50 fold higher (less cell killing potency) than for JS-K ([4]; other four cancer cells (other than CEM), relative to JS-K) | IC50 (leukemia cell CCRF-CEM; Homo sapiens, CCRF-CEM, read-out: IC50 against leukemia CEM cells) | inhibitory effect on cellular proliferation ([4]; all tested cancer cells: BT474, MDA-MB-231, A549, CCRF-CEM, Jurkat) | IC50 ([1]; MDA-MB-231 cells, read-out: Half maximal inhibitory concentration (IC50)) | IC50 ([2]; Jurkat E6-1 cells, read-out: Half maximal inhibitory concentration (IC50)) | IC50 (A549 lung cancer cells; A549 cells, read-out: Half maximal inhibitory concentration (IC50)) | IC50 ([3]; BT474 cells, read-out: Half maximal inhibitory concentration (IC50)) | IC50 (leukemia cell CCRF-CEM; leukemia CEM cells, read-out: IC50 against leukemia CEM cells) |
| --- | --- | --- | --- | --- | --- | --- | --- | --- | --- | --- | --- | --- | --- | --- | --- |
| O=[N+]([O-])c1ccc(O/N=[N+](\[O-])N2CCN(CCN3CCN(/[N+]([O-])=N/Oc4ccc([N+](=O)[O-])cc4[N+](=O)[O-])CC3)CC2)c([N+](=O)[O-])c1 [Compound 1, (1Z,1′Z)-1,1′-(ethane-1,2-diylbis(piperazine-4,1-diyl))bis(2-(2,4-dinitrophenoxy)diazene 1-oxide)] | 17.6 ± 0.08 µM | 3.71 ± 0.04 µM | 17.1 ± 1.02 µM | 10.7 ± 0.97 µM | 2.64 ± 0.37 µM |  |  |  |  |  |  |  |  |  |  |
| O=[N+]([O-])c1ccc(O/N=[N+](\[O-])N2CCN(CCCN3CCN(/[N+]([O-])=N/Oc4ccc([N+](=O)[O-])cc4[N+](=O)[O-])CC3)CC2)c([N+](=O)[O-])c1 [Compound 2, (1Z,1′Z)-1,1′-(propane-1,3-diylbis(piperazine-4,1-diyl))bis(2-(2,4-dinitrophenoxy)diazene 1-oxide)] | > 20 µM | 4.06 ± 0.18 µM | 18.8 ± 0.21 µM | 10.8 ± 0.08 µM | 3.73 ± 0.15 µM |  |  |  |  |  |  |  |  |  |  |
| O=[N+]([O-])c1ccc(O/N=[N+](\[O-])N2CCC(CN3CCN(/N=[N+](\[O-])Oc4ccc([N+](=O)[O-])cc4[N+](=O)[O-])CC3)CC2)c([N+](=O)[O-])c1 [Compound 3, (E)-1-(2,4-dinitrophenoxy)-2-(4-((1-((Z)-2-(2,4-dinitrophenoxy)-1-oxidodiazen-1-yl)piperidin-4-yl)methyl)piperazin-1-yl)diazene 1-oxide] | 17.9 ± 1.01 µM | 1.94 ± 0.08 µM | 11.3 ± 1.61 µM | 7.06 ± 1.03 µM | 0.46 ± 0.02 µM | highest specific activity | higher selectivity than JS-K | 1.9-5.4 fold | 0.46 µM |  |  |  |  |  |  |
| O=[N+]([O-])c1ccc(O/N=[N+](\[O-])N2CCN(CC3CCC(CN4CCN(/[N+]([O-])=N/Oc5ccc([N+](=O)[O-])cc5[N+](=O)[O-])CC4)CC3)CC2)c([N+](=O)[O-])c1 (stereo not drawn) [Compound 4, (1Z,1′Z)-1,1′-((cyclohexane-1,4-diylbis(methylene))bis(piperazine-4,1-diyl))bis(2-(2,4-dinitrophenoxy)diazene 1-oxide)] | 16.4 ± 0.53 µM | 3.01 ± 0.22 µM | 18.5 ± 0.15 µM | 6.01 ± 0.21 µM | 2.54 ± 0.14 µM |  |  |  |  |  |  |  |  |  |  |
| CCOC(=O)N1CCN(/[N+]([O-])=N/Oc2ccc([N+](=O)[O-])cc2[N+](=O)[O-])CC1 [JS-K, O^2-(2,4-dinitrophenyl) 1-[(4-ethoxycarbonyl)piperazin-1-yl]diazen-1-ium-1,2-diolate, reference compound] |  |  |  |  |  |  |  |  |  | high inhibitory effect | 7.93 ± 0.47 µM | 0.52 ± 0.02 µM | 2.11 ± 0.15 µM | 3.66 ± 0.41 µM | 0.29 µM |
